{
  "source": "patent US20130108552A1",
  "about": "“NEAR-IR INDOCYANINE GREEN DOPED MULTIMODAL SILICA NANOPARTICLES AND METHODS FOR MAKING THE SAME” (UNIVERSITY OF FLORIDA RESEARCH FOUNDATION INC., priority 2010, published 2013)",
  "origin": "cited, not measured here",
  "key": {"[1]": {"details": "in H2O"}, "[2]": {"test_system": "nonspecific plasma proteins"}},
  "data": [
    {"smiles": "CC1(C)C(/C=C/C=C/C=C/C=C2\\N(CCCCS(=O)(=O)O)c3ccc4ccccc4c3C2(C)C)=[N+](CCCCS(=O)(=O)[O-])c2ccc3ccccc3c21", "note": "[ICG, indocyanine green]", "values": [
      {"measurement": "critical micelle concentration", "setting": "[1]", "value": "about 0.32 mg/mL"},
      {"measurement": "binding to nonspecific plasma proteins", "setting": "[2]", "value": "strongly bind to nonspecific plasma proteins"}
    ]}
  ]
}
